Here are results for 5 molecules from patent US20220136032A1, “SELECTION MEDIUM FOR BACTERIA BELONGING TO GENUS PSEUDOMONAS AND USE THEREOF” (KABUSHIKI KAISHA YAKULT HONSHA, priority 2019, published 2022).

What all share (experiment): Measurement of minimum inhibitory concentrations (MICs), liquid medium, OD 660 nm
The test system of one test is E. faecium. Type of test: cell-based, Enterococcus faecium. Conditions: Trypticase Soy Broth, 37° C. 24 hours. The protocol:
(§1) Colonies of E. coli, E. faecium and C. kerstersii, which formed colonies on the plate medium obtained by mixing NAC medium and TSA medium at a ratio of 1:20, and colonies of P. aeruginosa were taken, added to 500 μl of the basal medium, stirred and subjected to the following experiment.
(§2) As antibacterial agents to which the sensitivity of P. aeruginosa is low and to which the sensitivities of E. coli, E. faecium and C. kerstersii are high, cefotaxime sodium salt (Sigma (referred to as “Cefotaxime” below)), ceftizoxime sodium (Fujisawa Healthcare (referred to as “Ceftizoxime” below)), vancomycin hydrochloride (Sigma (referred to as “Vancomycin” below)), minocyclin hydrochloride (Sigma (referred to as “Minocyclin” below)) and cefalotin sodium salt (Sigma (referred to as “Cefalotin” below)) were selected. The antibacterial agents were dissolved in sterilized distilled water at 51.2 mg/ml and then sterilized by filtration through a membrane filter of 0.45 μm (DISMIC-25cs: Toyo Roshi).
(§3) After adding 5 μl of the bacterial solutions to the wells and thoroughly stirring, the bacteria were cultured at 37° C. for 24 hours. After culturing, the OD values (660 nm) were measured, and the lowest concentrations of the antibacterial agents at which the growth was inhibited as compared to that of the negative control (MICs: minimum inhibitory concentrations) were determined. […]

In a further test the test system is P. aeruginosa. Type of test: cell-based, Pseudomonas aeruginosa. Conditions: for MIC: Pseudomonas aeruginosa, read-out: MIC (μg/ml) P. aeruginosa. The method, then: as §1
The antibacterial agents were dissolved in sterilized distilled water at 51.2 mg/ml and then sterilized by filtration through a membrane filter of 0.45 μm (DISMIC-25cs: Toyo Roshi).
(§4) After adding 5 μl of the bacterial solutions to the wells and thoroughly stirring, the bacteria were cultured at 37° C. for 24 hours. After culturing, the OD values (660 nm) were measured, and the lowest concentrations of the antibacterial agents at which the growth was inhibited as compared to that of the negative control (MICs: minimum inhibitory concentrations) were determined. As the negative control, the liquid medium to which the antibacterial agents were not added was used.

The test system of another test is C. kerstersii. Type of test: cell-based, Comamonas kerstersii. Conditions: for MIC: Comamonas kerstersii, read-out: MIC (μg/ml) C. kerstersii. The method, then: as §1, §2, §4
In another test the test system is E. coli. The test is classed as cell-based. The settings on record: Escherichia coli; Trypticase Soy Broth, 37° C. 24 hours; read-out: MIC (μg/ml) E. coli. The method, then:
as §1, §2, §3

Where [1] appears, read: Trypticase Soy Broth, 37° C. 24 hours.

Counter-ions that a name gives are not always drawn. Like-named read-outs stand apart in the source and are kept apart here.

Take `CC(=O)OCC1=C(C(=O)O)N2C(=O)[C@@H](NC(=O)Cc3cccs3)[C@H]2SC1` [Cefalotin, cefalotin sodium salt]: the MIC with E. faecium (Enterococcus faecium, read-out: MIC (μg/ml) E. faecium) was 8 µg/mL; with P. aeruginosa (setting [1]), over 256 µg/mL; in the test with C. kerstersii (setting [1]), 16 µg/mL. In addition, the “Sensitivity of P. aeruginosa to the antibacterial agent” value with P. aeruginosa was “low”.
For `CO/N=C(\C(=O)N[C@@H]1C(=O)N2C(C(=O)O)=C(COC(C)=O)CS[C@H]12)c1csc(N)n1` [Cefotaxime, cefotaxime sodium salt], the figures for the MIC in the test on P. aeruginosa (setting [1]) and with E. coli were 16 µg/mL and under 0.5 µg/mL, respectively.
For `CO/N=C(\C(=O)N[C@@H]1C(=O)N2C(C(=O)O)=CCS[C@H]12)c1csc(N)n1` [Ceftizoxime, ceftizoxime sodium], in that order: 64 µg/mL and under 0.5 µg/mL.
As for `CN(C)c1ccc(O)c2c1C[C@@H]1C[C@@H]3[C@H](N(C)C)C(=O)C(C(N)=O)=C(O)[C@@]3(O)C(=O)C1=C2O.Cl` [Minocyclin, minocyclin hydrochloride], the “MIC (μg/ml) E. faecium” value against E. faecium was under 0.5 µg/mL. Besides, in the test on P. aeruginosa, the “Sensitivity of P. aeruginosa to the antibacterial agent” value is given as “sensitive”. Moreover, in the test with P. aeruginosa (setting [1]), the “MIC (μg/ml) P. aeruginosa” value was under 0.5 µg/mL. Besides, the “MIC (μg/ml) C. kerstersii” value in the test on C. kerstersii (setting [1]) is under 0.5 µg/mL.
`CN[C@H](CC(C)C)C(=O)N[C@H]1C(=O)N[C@@H](CC(N)=O)C(=O)N[C@H]2C(=O)N[C@H]3C(=O)N[C@H](C(=O)N[C@H](C(=O)O)c4cc(O)cc(O)c4-c4cc3ccc4O)[C@H](O)c3ccc(c(Cl)c3)Oc3cc2cc(c3O[C@@H]2O[C@H](CO)[C@@H](O)[C@H](O)[C@H]2O[C@H]2C[C@](C)(N)[C@H](O)[C@H](C)O2)Oc2ccc(cc2Cl)[C@H]1O` [Vancomycin, vancomycin hydrochloride]: the MIC in the test on P. aeruginosa (24 h) was over 256 µg/mL; with C. kerstersii (24 h) it was 128 µg/mL. For the same molecule, the “Sensitivity of C. kerstersii to the antibacterial agent” value in the test on C. kerstersii is “low”.
